Experiment in all cases: Kinase selectivity, DiscoverX scanMAX Kinase assay panel (% control)
Holding throughout (assay type): binding

The target of experiment [1] is T1, kinases of the scanMAX Kinase assay panel (Homo sapiens, UniProt P25098).
T1 construct: purchased DiscoverX Co. (contract measurement) scanMAX Kinase assay panel
T1 sequence (P25098 1-689): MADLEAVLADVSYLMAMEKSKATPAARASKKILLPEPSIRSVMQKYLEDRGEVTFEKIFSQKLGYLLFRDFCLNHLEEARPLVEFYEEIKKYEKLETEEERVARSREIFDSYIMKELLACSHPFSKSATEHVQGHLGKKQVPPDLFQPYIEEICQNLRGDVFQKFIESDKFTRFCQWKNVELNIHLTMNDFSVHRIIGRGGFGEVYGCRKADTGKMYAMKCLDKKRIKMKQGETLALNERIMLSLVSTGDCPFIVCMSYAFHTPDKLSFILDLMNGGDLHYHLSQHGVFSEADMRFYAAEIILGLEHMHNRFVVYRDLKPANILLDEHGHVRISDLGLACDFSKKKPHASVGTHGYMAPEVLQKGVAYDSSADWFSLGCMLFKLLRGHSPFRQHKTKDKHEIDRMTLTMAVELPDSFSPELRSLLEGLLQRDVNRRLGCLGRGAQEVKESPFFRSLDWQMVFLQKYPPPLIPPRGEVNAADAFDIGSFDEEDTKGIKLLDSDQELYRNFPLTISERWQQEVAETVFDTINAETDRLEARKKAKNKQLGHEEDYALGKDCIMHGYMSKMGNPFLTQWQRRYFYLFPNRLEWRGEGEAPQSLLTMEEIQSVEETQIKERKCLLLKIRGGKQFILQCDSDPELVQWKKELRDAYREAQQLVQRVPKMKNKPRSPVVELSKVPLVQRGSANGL
To be noted: GRK2; 1 uM. The gist of the method:
(§1)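 Compounds tested at 1 uM against the scanMAX kinase panel. Signal expressed as % control = (compound − positive control)/(DMSO negative control − positive control) × 100, where positive control = 0% and DMSO = 100%; below 35% counted as activity on that kinase.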

Experiment [2] deals with T2, kinases of the scanMAX Kinase assay panel (Homo sapiens, UniProt P29322).
T2 construct: purchased DiscoverX Co. (contract measurement) scanMAX Kinase assay panel
T2 sequence (P29322 28-1005): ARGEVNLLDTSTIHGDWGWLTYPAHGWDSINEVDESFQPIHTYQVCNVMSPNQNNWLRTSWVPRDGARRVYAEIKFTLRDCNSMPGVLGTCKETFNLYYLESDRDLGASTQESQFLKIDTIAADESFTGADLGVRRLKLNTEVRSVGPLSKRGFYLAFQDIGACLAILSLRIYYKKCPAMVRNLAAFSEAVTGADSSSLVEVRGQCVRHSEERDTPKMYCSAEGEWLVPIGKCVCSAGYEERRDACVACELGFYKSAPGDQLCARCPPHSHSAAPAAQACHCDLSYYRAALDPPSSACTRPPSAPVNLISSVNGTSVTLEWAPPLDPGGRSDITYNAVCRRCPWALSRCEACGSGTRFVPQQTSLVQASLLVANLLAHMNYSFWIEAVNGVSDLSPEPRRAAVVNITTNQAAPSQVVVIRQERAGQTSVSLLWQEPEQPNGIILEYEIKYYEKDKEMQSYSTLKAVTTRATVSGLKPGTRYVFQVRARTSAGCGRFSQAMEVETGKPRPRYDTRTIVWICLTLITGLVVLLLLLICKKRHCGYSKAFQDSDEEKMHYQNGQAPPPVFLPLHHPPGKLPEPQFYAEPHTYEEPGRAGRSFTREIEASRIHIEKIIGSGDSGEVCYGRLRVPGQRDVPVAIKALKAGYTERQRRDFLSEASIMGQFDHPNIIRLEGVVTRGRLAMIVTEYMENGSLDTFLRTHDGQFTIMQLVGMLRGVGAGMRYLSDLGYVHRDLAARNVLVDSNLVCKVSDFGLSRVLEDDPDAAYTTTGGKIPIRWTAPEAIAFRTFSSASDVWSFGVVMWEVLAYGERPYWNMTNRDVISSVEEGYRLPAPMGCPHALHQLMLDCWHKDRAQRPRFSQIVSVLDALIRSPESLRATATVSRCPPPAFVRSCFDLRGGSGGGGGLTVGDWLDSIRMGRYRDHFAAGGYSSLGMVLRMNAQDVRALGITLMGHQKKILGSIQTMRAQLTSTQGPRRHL
To be noted: EPHA8; 1 uM. The gist of the method:
as §1

In experiment [3] the target is T3, kinases of the scanMAX Kinase assay panel (Homo sapiens, UniProt Q12851).
T3 construct: purchased DiscoverX Co. (contract measurement) scanMAX Kinase assay panel
T3 sequence (Q12851 1-820): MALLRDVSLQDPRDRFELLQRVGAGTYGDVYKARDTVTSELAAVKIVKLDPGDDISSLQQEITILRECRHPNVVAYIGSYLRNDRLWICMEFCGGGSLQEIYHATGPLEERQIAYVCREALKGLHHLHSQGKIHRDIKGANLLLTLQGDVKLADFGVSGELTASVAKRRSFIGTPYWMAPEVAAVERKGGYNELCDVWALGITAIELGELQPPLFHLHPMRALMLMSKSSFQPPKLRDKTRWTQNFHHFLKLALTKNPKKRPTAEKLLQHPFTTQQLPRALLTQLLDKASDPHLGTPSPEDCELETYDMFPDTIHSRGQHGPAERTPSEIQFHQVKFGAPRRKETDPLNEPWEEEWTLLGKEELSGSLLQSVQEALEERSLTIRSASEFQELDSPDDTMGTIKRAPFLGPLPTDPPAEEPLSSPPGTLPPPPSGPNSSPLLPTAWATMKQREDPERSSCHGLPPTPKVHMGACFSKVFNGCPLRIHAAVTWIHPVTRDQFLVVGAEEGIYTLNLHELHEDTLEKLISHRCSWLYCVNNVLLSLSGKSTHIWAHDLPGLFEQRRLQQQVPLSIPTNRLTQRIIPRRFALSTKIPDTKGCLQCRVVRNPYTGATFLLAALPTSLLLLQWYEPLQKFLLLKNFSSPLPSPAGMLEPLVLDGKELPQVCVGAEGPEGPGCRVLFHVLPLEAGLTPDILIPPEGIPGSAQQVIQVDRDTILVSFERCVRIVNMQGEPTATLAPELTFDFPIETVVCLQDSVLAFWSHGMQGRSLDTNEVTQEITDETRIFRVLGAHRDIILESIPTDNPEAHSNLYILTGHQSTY
To be noted: MAP4K2; 1 uM. Summed up: as §1

For experiment [4], the target named is T4, kinases of the scanMAX Kinase assay panel (Homo sapiens, UniProt Q7KZI7).
T4 construct: purchased DiscoverX Co. (contract measurement) scanMAX Kinase assay panel
T4 sequence (Q7KZI7 whole entry): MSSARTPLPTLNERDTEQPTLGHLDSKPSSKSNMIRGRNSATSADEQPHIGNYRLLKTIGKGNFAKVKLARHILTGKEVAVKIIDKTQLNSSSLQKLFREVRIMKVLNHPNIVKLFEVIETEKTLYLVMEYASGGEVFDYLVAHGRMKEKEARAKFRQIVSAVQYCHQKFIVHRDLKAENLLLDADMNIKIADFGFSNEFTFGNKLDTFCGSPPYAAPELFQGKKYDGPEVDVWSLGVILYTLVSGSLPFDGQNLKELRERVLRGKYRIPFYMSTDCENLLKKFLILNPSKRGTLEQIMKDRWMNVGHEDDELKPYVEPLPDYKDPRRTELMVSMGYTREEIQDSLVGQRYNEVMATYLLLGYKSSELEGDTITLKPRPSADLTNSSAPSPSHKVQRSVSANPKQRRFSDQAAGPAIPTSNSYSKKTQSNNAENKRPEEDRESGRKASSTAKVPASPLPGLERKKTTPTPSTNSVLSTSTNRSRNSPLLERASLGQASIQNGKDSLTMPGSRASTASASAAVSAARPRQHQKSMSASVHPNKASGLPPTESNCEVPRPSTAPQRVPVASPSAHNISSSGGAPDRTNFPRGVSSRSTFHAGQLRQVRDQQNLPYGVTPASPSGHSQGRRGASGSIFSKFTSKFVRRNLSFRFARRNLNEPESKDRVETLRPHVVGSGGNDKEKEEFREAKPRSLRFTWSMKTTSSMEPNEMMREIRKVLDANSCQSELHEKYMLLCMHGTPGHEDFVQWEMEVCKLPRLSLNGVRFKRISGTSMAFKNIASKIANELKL
To be noted: MARK2; 1 uM. The gist of the method:
as §1

The target of experiment [5] is T5, kinases of the scanMAX Kinase assay panel (Homo sapiens, UniProt Q9H0K1).
T5 construct: purchased DiscoverX Co. (contract measurement) scanMAX Kinase assay panel
T5 sequence (Q9H0K1 whole entry): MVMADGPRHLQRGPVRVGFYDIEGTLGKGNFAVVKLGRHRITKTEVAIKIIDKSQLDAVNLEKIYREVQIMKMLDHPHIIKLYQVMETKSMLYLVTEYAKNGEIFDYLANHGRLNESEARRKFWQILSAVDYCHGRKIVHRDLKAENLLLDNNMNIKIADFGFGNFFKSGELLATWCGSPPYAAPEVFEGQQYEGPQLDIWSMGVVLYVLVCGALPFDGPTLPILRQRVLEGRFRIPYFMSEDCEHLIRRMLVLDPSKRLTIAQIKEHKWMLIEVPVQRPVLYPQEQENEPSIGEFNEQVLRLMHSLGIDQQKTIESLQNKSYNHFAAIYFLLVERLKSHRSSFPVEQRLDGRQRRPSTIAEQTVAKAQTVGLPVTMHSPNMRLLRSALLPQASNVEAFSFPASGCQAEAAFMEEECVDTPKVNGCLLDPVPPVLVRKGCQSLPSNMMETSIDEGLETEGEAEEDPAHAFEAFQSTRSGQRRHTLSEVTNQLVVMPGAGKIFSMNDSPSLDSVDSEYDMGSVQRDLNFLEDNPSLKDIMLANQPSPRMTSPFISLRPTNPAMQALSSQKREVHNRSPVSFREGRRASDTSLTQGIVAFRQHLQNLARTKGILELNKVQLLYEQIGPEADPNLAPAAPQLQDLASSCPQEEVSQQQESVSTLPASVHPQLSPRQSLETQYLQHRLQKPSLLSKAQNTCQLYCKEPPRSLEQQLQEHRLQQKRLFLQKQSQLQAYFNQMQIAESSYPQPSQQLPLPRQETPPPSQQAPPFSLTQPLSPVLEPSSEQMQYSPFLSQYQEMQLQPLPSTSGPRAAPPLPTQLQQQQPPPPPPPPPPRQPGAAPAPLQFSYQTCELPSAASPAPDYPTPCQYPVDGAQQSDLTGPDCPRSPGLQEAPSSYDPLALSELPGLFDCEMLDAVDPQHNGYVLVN
To be noted: kinase SIK2; 1 uM in DMSO. Summed up: as §1

Turning to `CNc1nc(Nc2ccc(C(=O)N3CCOCC3)cc2OC)nc2[nH]cc(C#N)c12` [Example 1, 2-((2-methoxy-4-(morpholine-4-carbonyl)phenyl)amino)-4-(methylamino)-7H-pyrrolo[2,3-d]pyrimidine-5-carbonitrile], the remaining binding at 1 µM was determined as 97% in experiment [1]; 97% in experiment [2]; 75% in experiment [3]; 100% in experiment [4]; 100% in experiment [5].

As for `CC1(Nc2nc(Nc3cnn([C@H]4CCN(C5COC5)C[C@@H]4F)c3Cl)nc3[nH]cc(C#N)c23)CC1` [Example 52, 2-((5-chloro-1-((3S,4S)-3-fluoro-1-(oxetane-3-yl)piperidine-4-yl)-1H-pyrazole-4-yl)amino)((1-methylcyclopropyl)amino)-7H-pyrrolo[2,3-d]pyrimidine-5-carbonitrile], the remaining binding at 1 µM in experiment [1] is 45%; in experiment [2] it was 86%; in experiment [3], 1.2%; in experiment [4], 9.5%; in experiment [5] it was 33%.

Turning to `CCNc1nc(Nc2ccc(C(=O)N3CCC(N4CCOCC4)CC3)cc2OC)nc2[nH]cc(C(F)(F)F)c12` [Example 104, (4-((4-(ethylamino)-5-(trifluoromethyl)-7H-pyrrolo[2,3-d]pyrimidine-2-yl)amino)-3-methoxyphenyl)(4-morpholinopiperidine-1-yl)methanone], the remaining binding at 1 µM in experiment [1] is 96%; in experiment [2], 93%; in experiment [3], 69%; in experiment [4], 81%; in experiment [5], 100%.

The values above are taken from patent US11208412B2 (DAEGU-GYEONGBUK MEDICAL INNOVATION FOUNDATION, priority 2017, dated 2021).
